Test [1] has as its system Orobanche cumana Wallr. seeds. The test can be described thus: Orobanche cumana seed germination test on glass fiber filter paper in petri dishes. Type of test: in vivo. The note with it: mean, n = 5 × 100 seeds; for Germination %* at concentration of 0.001 mg I^−1 / Germination %* at concentration of 0.01 mg I^−1 / Germination %* at concentration of 0.1 mg I^−1: preconditioned Orobanche cumana seeds of lot IN153, race F. The procedure: The effect of compounds of Formula (I) on germination of Orobanche cumana Wallr. seeds was evaluated on glass fiber filter paper (GFFP) in petri dishes. Seeds were preconditioned at moisture and suitable temperature to become responsive to the specific chemical germination stimulants.
Test compounds were dissolved in DMSO (10 000 mg l^−1) and stored at room temperature in a desiccators with desiccants. The stock solutions were dissolved with deionised water to the appropriate final test concentration.
Seeds of O. cumana race ‘F’ were collected from sunflower fields in Manzanilla (Seville, Spain) in 2006 (seed lot 1N146) and 2008 (seed lot 1N153) and stored at room temperature. To separate seeds from heavy organic debris, a modified sucrose floatation technique as described by Hartman & Tanimonure (Plant Disease (1991), 75, p. 494) was applied. Seeds were filled into a separation funnel and stirred in water. When seeds floated to the surface, the water fraction containing heavy debris was discarded. Seeds were re-suspended in 2.5M sucrose solution (specific gravity of 1.20) and heavy debris was allowed to settle down for 60 min. After removing debris, seeds were disinfected in 1% sodium hypochlorite solution and 0.025% (v/v) Tween 20 for 2 min. The seeds were decanted onto two layers of cheesecloth, rinsed with sterile deionised water and re-suspended in sterile deionised water. Two ml of the seed suspension containing approximately 150-400 seeds were spread evenly on two layers of sterile glass fiber filter paper disc ([…]) in Petri dishes (Ø9 cm). After wetting the discs with 3 ml sterile deionised water, petri dishes were sealed with parafilm. Seeds were incubated for 10 days at 20° C. in the dark for seed conditioning. The upper disc with conditioned seeds was briefly dried, transferred to a petri dish lined with a dry GFFP disc, and wetted with 6 ml of the appropriate test solution. The compounds of Formula (I) were tested at concentrations of 0.001, 0.01, and 0.1 mg l^−1. The strigolactone analogue GR24 (commercially available as a mixture of isomers) was included as positive control and 0.001% DMSO as negative control. All treatments were tested in five replicates. Seeds were re-incubated at 20° C. in the dark and examined for germination 10 days later. The radicles of germinated seeds were stained for 5 min with blue ink (MIGROS, Switzerland) in 5% acetic acid according to Long et al. (Seed Science Research (2008), 18, p. 125). After staining, seeds were scanned using a flatbed scanner with an optical resolution of 1200 dpi (PULSTEK, OpticPro ST28) or photographed using a camera stand mounted with a digital SLR camera (Canon EOS 5D). Germination of 100 seeds per replicate was evaluated on digital images. Seeds were considered germinated when the radicle protruded from the seed coat.

In test [2] the test system is Brassica oleracea cv Botrytis. Put plainly: Standard paper germination test for Brassica (tropical cauliflower seeds, 20° C. in the dark). Type of test: in vivo. The note with it: tropical cauliflower 3C150 (seed batch 11B295), 25 μM. The protocol:
The effect of compounds of Formula (I) on the germination of Brassica oleracea cv Botrytis or common cauliflower was tested on tropical types. […] Germination of a sensitive tropical type at 20° is stimulated by the presence of light.
The tropical seed batch tested was part of seed batches produced as basic seed (for maintenance of the parental line) and were processed accordingly.
Germination was assessed using the standard paper germination test for Brassica: Fifty seeds were placed on blue germination paper, which was moistened with the appropriate solutions, in closed oblong germination boxes. Each condition was tested in duplo. Germination boxes were placed in controlled germination cabinets with the appropriate temperature and light conditions. Germination of seeds was counted at regular intervals. Seeds were considered to be germinated when the radical had protruded the testa and endosperm (radical size approximately 1 mm). Germination kinetics were analyzed using the Germinator analysis tool in order to obtain the parameters: Gmax (maximum germination) and t50 (time needed to reach 50% of the Gmax). The Germinator analysis tool is an add-in in for excel developed by the University of Wageningen: Joosen, R. V. L., J. Kodde, et al. (2010). (“Germinator: A Software Package for High-Throughput Scoring and Curve Fitting of Arabidopsis Seed Germination.” The Plant Journal 62(1): 148-159.)
Test compounds were dissolved in DMSO at a concentration of 50 mM and stored at −20° C. The strigolactone analogue GR24 (commercially available as a racemic mixture of 2 diastereoisomers, referred to as “synthetic strigolactone GR-24” and first prepared by Johnson A. W. & all, Journal of the Chemical Society, Perkin Transactions 1, 1981, page 1734-1743) was included as positive control. Germination solutions were prepared by diluting the stock solutions with demineralized water till 25 μM. As control solutions demineralized water and a 0.05% v/v DMSO solution were used.

Setting [3] is: aqueous control (0.001% DMSO) = 0.2% germination.
[4] abbreviates: Table 3, preconditioned seeds of lot IN146, raceF, aqueous control (0.001% DMSO) = 0% germination.
Where [5] appears, read: Table 5, preconditioned seeds of lot IN153, raceF, aqueous control (0.001% DMSO) = 0.2% germination.
Where [6] appears, read: Table 6, preconditioned seeds of lot IN153, raceF, aqueous control (0.001% DMSO) = 0.8% germination.
Where [7] appears, read: Table 4, preconditioned seeds of lot IN146, raceF, aqueous control (0.001% DMSO) = 0% germination.

Consider `CC1=CC(OC=C2C(=O)NC3c4cccc(-c5ccccc5)c4CC23)OC1=O` (mixture of isomers) [Compound A9], for which, in test [1] (setting [3]), the “Germination %* at concentration of 0.001 mg I^−1” value (from here on “Germination %* … of 0.001 mg I^−1”) turned out to be 53.4%, the “Germination %* at concentration of 0.01 mg I^−1” value (“Germination %* … of 0.01 mg I^−1” below) is reported as 84.4% and the “Germination %* at concentration of 0.1 mg I^−1” value (from here on “Germination %* … of 0.1 mg I^−1”) is on record as 76.8%.

`CC1=CC(OC=C2C(=O)NC3c4cccc(-c5ccncc5)c4CC23)OC1=O` (mixture of isomers) [Compound A10]: in test [1] (setting [3]), the “Germination %* … of 0.001 mg I^−1” value is 11.2%, the “Germination %* … of 0.01 mg I^−1” value was determined as 18.0% and the “Germination %* … of 0.1 mg I^−1” value turned out to be 24.0%.

As to `CC1=CC(OC=C2C(=O)NC3c4cccc(-c5cccnc5)c4CC23)OC1=O` (mixture of isomers) [Compound A11], in test [1] (setting [3]), the “Germination %* … of 0.001 mg I^−1” value was determined as 30.0%, the “Germination %* … of 0.01 mg I^−1” value was found to be 65.6% and the “Germination %* … of 0.1 mg I^−1” value amounted to 90.8%.

Take `CC1=CC(OC=C2C(=O)NC3c4cccc(-c5nccs5)c4CC23)OC1=O` (mixture of isomers) [Compound A12]: in test [1] (setting [3]), the “Germination %* … of 0.001 mg I^−1” value is recorded as 13.0%, the “Germination %* … of 0.01 mg I^−1” value is 7.0% and the “Germination %* … of 0.1 mg I^−1” value was determined as 26.8%.

`CC1=CC(OC=C2C(=O)NC3c4cccc(-c5ccco5)c4CC23)OC1=O` (mixture of isomers) [Compound A13]: in test [1] (setting [3]), the “Germination %* … of 0.001 mg I^−1” value is listed as 13.4%, the “Germination %* … of 0.01 mg I^−1” value was 66.4% and the “Germination %* … of 0.1 mg I^−1” value is 90.0%.

For `C=CCc1cccc2c1C[C@@H]1/C(=C\O[C@H]3C=C(C)C(=O)O3)C(=O)N[C@H]21` (relative stereo) [Compound A1, (3aR*,8bS*, 5′R*)-5-allyl-3-[1-(4-Methyl-5-oxo-2,5-dihydro-furan-2-yloxy)-meth-(E)-ylidene]-3,3a,4,8b-tetrahydro-1H-indeno[1,2-b]pyrrol-2-one], in test [1] (setting [4]), the “Germination % at concentration of 0.001 mg I^−1” value was 85.8%, the “Germination % at concentration of 0.01 mg I^−1” value is recorded as 82.0% and the “Germination % at concentration of 0.1 mg I^−1” value is 82.6%.

Consider `CC#Cc1cccc2c1C[C@@H]1/C(=C\O[C@H]3C=C(C)C(=O)O3)C(=O)N[C@H]21` (relative stereo) [Compound A4], for which, in test [1] (setting [5]), the “Germination % at concentration of 0.001 mg I^−1” value amounted to 97.6%, the “Germination % at concentration of 0.01 mg I^−1” value stood at 94.4% and the “Germination % at concentration of 0.1 mg I^−1” value was 98.2%.

`COCC#Cc1cccc2c1C[C@@H]1/C(=C\O[C@H]3C=C(C)C(=O)O3)C(=O)N[C@H]21` (relative stereo) [Compound A5]: in test [1] (setting [5]), the “Germination % at concentration of 0.001 mg I^−1” value worked out at 79.0%, the “Germination % at concentration of 0.01 mg I^−1” value is 91.4% and the “Germination % at concentration of 0.1 mg I^−1” value is reported as 99.2%.

For `CC1=C[C@H](O/C=C2/C(=O)N[C@@H]3c4cccc(C#Cc5ccccc5)c4C[C@H]23)OC1=O` (relative stereo) [Compound A6], in test [1] (setting [3]), the “Germination %* … of 0.001 mg I^−1” value was 2.6%, the “Germination %* … of 0.01 mg I^−1” value was determined as 40.2% and the “Germination %* … of 0.1 mg I^−1” value was 83.6%.

Turning to `C=Cc1cccc2c1C[C@@H]1/C(=C\O[C@H]3C=C(C)C(=O)O3)C(=O)N[C@H]21` (relative stereo) [Compound A7], in test [1] (setting [6]), the “Germination % at concentration of 0.001 mg I^−1” value worked out at 96.4%, the “Germination % at concentration of 0.01 mg I^−1” value came out at 96.8% and the “Germination % at concentration of 0.1 mg I^−1” value stood at 95.4%.

`COC(=O)c1ccc2c(c1)C1NC(=O)/C(=C/O[C@H]3C=C(C)C(=O)O3)[C@H]1C2` (stereo in doubt) [Compound A3, methyl(3E,3aR,8bR)-3-[[(2R)-4-methyl-5-oxo-2H-furan-2-yl]oxymethylene]-2-oxo-1,3a,4,8b-tetrahydroindeno[1,2-b]pyrrole-7-carboxylate]: in test [1] (setting [7]), the “Germination % at concentration of 0.001 mg I^−1” value worked out at 85.8%, the “Germination % at concentration of 0.01 mg I^−1” value amounted to 82.0% and the “Germination % at concentration of 0.1 mg I^−1” value stood at 82.6%. For the same compound, the “stimulation (extra germination compared to the DMSO treatment, expressed as percentage of the DMSO treatment)” value in test [2] is recorded as 36.7%. Also, the “Gmax (total germination)” value in test [2] (DMSO treatment = 31.3%) is recorded as 43.0%.

As to `C#Cc1cccc2c1C[C@@H]1/C(=C\O[C@H]3C=C(C)C(=O)O3)C(=O)N[C@H]21` [Compound A2, (3E,3aR,8bS)-5-ethynyl-3-[(4-methyl-5-oxo-2H-furan-2-yl)oxymethylene]-1,3a,4,8b-tetrahydroindeno[1,2-b]pyrrol-2-one], in test [1] (setting [4]), the “Germination % at concentration of 0.001 mg I^−1” value was determined as 85.8%, the “Germination % at concentration of 0.01 mg I^−1” value is 82.0% and the “Germination % at concentration of 0.1 mg I^−1” value is on record as 86.2%.

For `CC1=C[C@H](O/C=C2/C(=O)N[C@@H]3c4c(cccc4C4CC4)C[C@H]23)OC1=O` [Compound A8, (3E,3aR,8bS)-8-cyclopropyl-3-[[(2R)-4-methyl-5-oxo-2H-furan-2-yl]oxymethylene]-1,3a,4,8b-tetrahydroindeno[1,2-b]pyrrol-2-one], in test [1] (setting [3]), the “Germination %* … of 0.001 mg I^−1” value is given as 81.2%, the “Germination %* … of 0.01 mg I^−1” value turned out to be 88.5% and the “Germination %* … of 0.1 mg I^−1” value came out at 86.8%.

The values are drawn from patent US9522882B2, “Strigolactam derivatives as plant growth regulating compounds” (Syngenta Participations AG, priority 2011, dated 2016).
